According to patent US7348138B2, “Method of inducing cell death using West Nile virus capsid protein” (priority 2000, dated 2008):

Columns and labels:
[1] = tested on: splenic lymphocytes; assay: Lymphoproliferative assay (tritiated thymidine incorporation, stimulation index); type: cell-based, mice
Experimental: To evaluate the T cell-mediated immune response against the WNV Cp gene product, an in vivo mouse experiment was set up. The quadriceps muscles of 6- to 8-week-old female BALB/c mice (Harlan Sprague Dawley, Inc., Indianapolis, Ind.) were injected with 100 μg of pWNVh-DJY, pWNVy-DJY, or pcDNA3.1 (without an insert) in PBS and 0.25% bupivacaine-HCl (Sigma, St Louis, Mo.). Two weeks later, the mice received a boost of another 100 μg DNA injections. Thirteen days after the boost injection, the mice were sacrificed, the spleens were harvested, and the lymphocytes were isolated and tested for cellular immune responses.
Harvested splenic lymphocytes were pooled for two mice in each immunized group and suspended to a concentration of 5×10^6 cells/ml. A 100 μl aliquot, containing 5×10^5 cells, was immediately added to each well of a 96-well, flat bottom microtiter plate. Reconstituted peptide, in vitro translated protein, or in vitro translation control were added to the wells, at concentrations of 5 μg/ml and 1 μg/ml (and 0.5 μg/ml for in vitro translated protein and in vitro translation control protein). Concanavalin A (Con A) was used as a positive proliferation control. The assay conditions were set up in triplicate. The cells were incubated at 37° C. in 5% CO2 for three days. One μCi of tritiated thymidine was added to each well and the cells were incubated for 18 hours at 37° C. The plate was harvested and the amount of incorporated tritiated thymidine was measured in a Beta Plate reader (Wallac, Turku, Finland). Stimulation Index was determined from the formula: Stimulation Index (SI)=(experimental count/spontaneous count). Spontaneous count wells included 5% fetal bovine serum which served as an irrelevant protein control.
The values presented for each condition are stimulation indices averaged over triplicate wells. For each immunization group tested, splenocytes were pooled from two mice within the group. “H” indicates splenocytes from the pWNVh-DJY-immunized group. “Y” indicates splenocytes from the pWNVh-DJY-immunized group of mice. “pcDNA3.1” indicates splenocytes from the pcDNA3.1-immunized control group of mice. Peptides 1, 2, and 3 are the WNVC-P1, WNVC-P2, and WNVC-P3 peptides described above. “Peptide 123” indicates a mixture of peptide 1, 2, and 3. “Y protein” indicates the Cp protein in vitro translated from the pWNVy-DJY construct. “Ctrl pro” indicates the in vitro translation control, generated with pcDNA3.1 vector containing no expressible insert, as described above. Detection of Intracellular IFN-γ by Flow Cytometry

[2] = tested on: SH-SY5Y neuroblastoma cells; assay: TUNEL analysis of cells incubated with peptide; type: cell-based; conditions: 10 μg peptide per 1×10^5 cells, 24 hours
Experimental: Peptide WNVC-P3, as described in Example 3 and FIG. 11 above, was tested for its ability to induce apoptosis in cells in culture. Peptide WNVC-P3 was incubated with SH-SY5Y neuroblastoma cells (ATCC; Manassas, Va.) at a concentration of 10 μg peptide per 1×10^5 cells.

[3] = splenocytes from H (pWNVh-DJY-immunized) mice, protein or peptide 1 μg/ml
[4] = splenocytes from H (pWNVh-DJY-immunized) mice, protein or peptide 5 μg/ml
[5] = splenocytes from Y group of immunized mice, protein or peptide 1 μg/ml
[6] = splenocytes from Y group of immunized mice, protein or peptide 5 μg/ml
[7] = splenocytes from pcDNA3.1-immunized control mice, protein or peptide 1 μg/ml
[8] = splenocytes from pcDNA3.1-immunized control mice, protein or peptide 5 μg/ml

Row | Substance | Stimulation Index (SI) [1, 3] | Stimulation Index (SI) [1, 4] | Stimulation Index (SI) [1, 5] | Stimulation Index (SI) [1, 6] | Stimulation Index (SI) [1, 7] | Stimulation Index (SI) [1, 8] | TUNEL-positive cells [2]
1 | TLTSAINRRSSKQKKRGGKTGI [Peptide 3] | 2.0 | 1.5 | 1.4 | 1.1 | 0.7 | 0.8 | TUNEL-positive cells were identified
2 | Concanavalin A [Con A, reference compound] | – | 686.5 | – | 366.9 | – | 71.8 | –
3 | KRAMLSLIDGKGPIRFVLA [Peptide 2] | 1.3 | 1.7 | 1.8 | 1.6 | 1.0 | 0.9 | –
4 | SKKPGGPGKSRAVNMLKRGMPR [Peptide 1] | 0.7 | 0.5 | 1.2 | 0.8 | 1.3 | 0.9 | –
